{
  "source": "paper PMC9784827",
  "about": "“In Combo Studies for the Optimization of 5-Aminoanthranilic Acid Derivatives as Potential Multitarget Drugs for the Management of Metabolic Syndrome” (Pharmaceuticals, 2022)",
  "key": {"diet-induced MetS model [1]": {"test_system": "diet-induced MetS model", "set-up": "method as in PMID 34577613", "conditions": "in vivo diet-induced MetS model, previous study ref 38; cited from earlier work"}, "diet-induced MetS model [2]": {"test_system": "diet-induced MetS model", "experiment": "In vivo diet-induced (high-fructose high-fat) MetS model", "set-up": "species or system Sprague–Dawley male rats", "conditions": "MetS rats, 10 mg/kg p.o. for 14 days, vs untreated group; for effect on glucose levels / effect on total cholesterol levels / effect on triglyceride levels / effect on body weight: HFHF diet; for effect on glucose levels / effect on total cholesterol levels / effect on triglyceride levels: serum; for effect on triglycerides and glucose (TyG) index: TyG = Ln(triglyceride x glucose/2)", "protocol": "In the diet-induced model, MetS was generated through 12 weeks of the consumption of a high-fructose high-fat (HFHF) diet per the previous experience in our group. The control group received a standard diet during the same period. After this induction phase, the animals of the standard diet were randomly allocated into two groups; one group (C/treated groups) would receive treatment with compounds 2, 3, or 4 for 14 days (10 mg/kg, p.o.), and the other group would receive no treatment (C groups). The same allocation was made for the diet-induced MetS group (the MetS group received no treatment, while MetS/treated groups received compound 2, 3, or 4, 10 mg/kg, p.o. for 14 days), as depicted in Figure 4.\nFor the in vivo experimentation, eighty Sprague–Dawley male rats weighing 250 ± 25 g were housed in acrylic boxes and treated following the recommendations and requirements of the NOM-062-ZOO-1999 (Official Mexican Standard for the Production, Care, and Use of Laboratory Animals). They were kept in a clear-air room maintained on an artificial 12 h light/dark cycle and were given ad libitum access to food and water. The protocol was approved by the Institutional Subcommittee for the Care and Use of Laboratory Animals (SICUAL) with the registration number FMM/SICUAL/006/2017 (date of approval, 30 August 2017).\nThe animals were randomly allocated to a group (control groups) that was fed on a regular Chow commercial diet (Purina-Rodent Laboratory Chow-5001 3.310 kcal/g) or to a group (MetS groups) that was supplied with a high-fructose and high-fat diet (4.161 kcal/g) for the generation of MetS. From our own experience, MetS is established after twelve weeks with this diet. The weight of each animal was recorded at the beginning of the study and every week after the completion of the induction period. In weeks nine and twelve, the glucose, total cholesterol, and triglyceride levels were monitored in fasting conditions of 12 h, using an Accutrend plus monitor (Roche). Following the MetS induction phase, the control and MetS groups were rearranged into the following groups: (1) control (CM, regular diet + no treatment n = 10); (2) MetS (HFHF diet + no treatment, n = 10); (3) control + compound 2 (C/2 regular diet + treatment with 2, n = 10); (4) MetS + compound 2 (MetS/2, HFHF diet + treatment with 2, n = 10); (5) control + compound 3 (C/3, regular diet + treatment with […], n = 10); (6) MetS + compound 3 (MetS/3, HFHF diet + treatment with 3, n = 10); (7) control + compound 4 (C/4, regular diet + treatment with 4, n = 10); (8) MetS + compound 4 (MetS/4, HFHF diet + treatment with 4, n = 10). The treatment stage lasted 14 days, and the animals retained the same diet they had during the induction to exclude the effect of diet change. All the animals received 100 μL of a 1% Kolliphor EL mixture in water with or without the tested compound (10 mg/Kg) via nasogastric. Animals were sacrificed by decapitation. The blood was collected and centrifuged at 1372× g for 15 min at 4 °C. The serum was gathered and stored at −80 °C until the determination of metabolic parameters.\nThe animals’ serum was defrosted, and triacylglyceride, cholesterol, and glucose levels were determined on an Architect c8000 system (Abbott, Wiesbaden, Germany). Statistical analysis was performed using one-way ANOVA, followed by Dunnett’s multiple comparisons tests employing GraphPad Prism version 9.4.1 (GraphPad Software, La Jolla, CA, USA). Differences were considered significant when p ≤ 0.05."}, "[3]": {"experiment": "Total antioxidant capacity, CUPRAC assay (Trolox equivalent antioxidant capacity)", "conditions": "triplicate", "protocol": "(§1) The HMG-CoA Reductase Assay Kit from Sigma-Aldrich (catalog number CS1090, St. Louis, MO, USA) was used to determine the inhibitory properties of compounds 3 and 4 over enzyme activity, using the instructions provided by the fabricant. […] For IC50 determination of compound 3, final concentrations of 2.5, 5.0, 10.0, and 20 μM were employed by triplicate. The Total Antioxidant Capacity Assay Kit from Sigma-Aldrich (catalog number MAK187, St. Louis, MO, USA) was used for the determination of in vitro antioxidant activity following the manufacturer’s instructions by triplicate."}, "HMG-CoA reductase [4]": {"molecular_target": "T1, HMG-CoA reductase (Homo sapiens, UniProt P04035)", "T1 construct": "purchased Sigma-Aldrich CS1090", "T1 sequence (P04035 426-888 limits assumed)": "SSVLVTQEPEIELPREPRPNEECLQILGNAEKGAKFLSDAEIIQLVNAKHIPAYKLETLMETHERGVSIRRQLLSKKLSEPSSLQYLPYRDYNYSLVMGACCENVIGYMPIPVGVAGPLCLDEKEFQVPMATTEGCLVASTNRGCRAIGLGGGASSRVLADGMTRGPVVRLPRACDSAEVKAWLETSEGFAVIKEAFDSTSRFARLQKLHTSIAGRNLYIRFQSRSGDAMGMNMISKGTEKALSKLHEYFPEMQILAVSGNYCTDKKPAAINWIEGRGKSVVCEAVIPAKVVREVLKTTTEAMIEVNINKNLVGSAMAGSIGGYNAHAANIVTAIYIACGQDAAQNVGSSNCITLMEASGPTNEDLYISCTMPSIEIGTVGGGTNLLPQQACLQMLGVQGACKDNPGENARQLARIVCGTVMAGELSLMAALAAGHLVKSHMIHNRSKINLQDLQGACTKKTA", "experiment": "In vitro HMG-CoA reductase inhibition (HMG-CoA Reductase Assay Kit, Sigma-Aldrich CS1090)", "format": "biochemical", "conditions": "for inhibition at 20 µM: initial screening, read-out: inhibition of HMG-CoA reductase enzymatic activity", "protocol": "as §1"}, "[5]": {"set-up": "method as in PMID 20072920", "conditions": "CUPRAC; cited from earlier work"}, "HMG-CoA reductase [6]": {"molecular_target": "T1, HMG-CoA reductase", "set-up": "method as in earlier work", "conditions": "same commercial kit, ref 73 (Mendieta et al.); cited from earlier work"}},
  "note": "Where two headings read alike, the source gives them in different places.",
  "data": [
    {"compound": "COc1ccc(C(=O)Nc2ccc(NC(=O)c3ccc(OC)c(OC)c3)c(C(=O)NCc3ccc(C(F)(F)F)cc3)c2)cc1OC", "note": "[Compound 1]", "values": [
      {"measurement": "effect on blood pressure", "setting": "diet-induced MetS model [1]", "value": "diminished"},
      {"measurement": "effect on glucose serum levels", "setting": "diet-induced MetS model [1]", "value": "diminished"},
      {"measurement": "effect on total cholesterol serum levels", "setting": "diet-induced MetS model [1]", "value": "diminished"}
    ]},
    {"compound": "COc1ccc(C(=O)Nc2ccccc2C(=O)NCc2ccc(C(F)(F)F)cc2)cc1OC", "note": "[Compound 2]", "values": [
      {"measurement": "effect on glucose levels", "setting": "diet-induced MetS model [2]", "value": "did not affect"},
      {"measurement": "effect on total cholesterol levels", "setting": "diet-induced MetS model [2]", "value": "did not affect"},
      {"measurement": "effect on triglyceride levels", "setting": "diet-induced MetS model [2]", "value": "did not affect"},
      {"measurement": "effect on body weight", "setting": "diet-induced MetS model [2]", "value": "did not affect"}
    ]},
    {"compound": "COc1ccc(C(=O)Nc2ccc(NC(=O)c3ccc(OC)c(OC)c3)c(C(=O)O)c2)cc1OC", "note": "[Compound 3, 2,5-Bis(3,4-dimethoxybenzamido)benzoic Acid]", "values": [
      {"measurement": "TEAC (Trolox equivalent antioxidant capacity)", "setting": "[3]", "value": "1.01 ± 0.06"},
      {"measurement": "effect on triglycerides and glucose (TyG) index", "setting": "diet-induced MetS model [2]", "value": "decrease"},
      {"measurement": "effect on glucose levels", "setting": "diet-induced MetS model [2]", "value": "reduced"},
      {"measurement": "effect on total cholesterol levels", "setting": "diet-induced MetS model [2]", "value": "reduced"},
      {"measurement": "effect on triglyceride levels", "setting": "diet-induced MetS model [2]", "value": "reduced"},
      {"measurement": "effect on body weight", "setting": "diet-induced MetS model [2]", "value": "reduced"},
      {"measurement": "inhibition at 20 µM", "setting": "HMG-CoA reductase [4]", "value": 94, "unit": "%"},
      {"measurement": "IC50", "setting": "HMG-CoA reductase [4]; concentrations 2.5, 5.0, 10.0 and 20 μM, triplicate", "value": "8.89 ± 0.51", "unit": "µM"}
    ]},
    {"compound": "COc1ccc(/C=C/C(=O)Nc2ccc(NC(=O)/C=C/c3ccc(OC)c(OC)c3)c(C(=O)NCc3ccc(C(F)(F)F)cc3)c2)cc1OC", "note": "[Compound 4, (2E,2′E)-N,N′-(2-((4-(Trifluoromethyl)benzyl)carbamoyl)-1,4-phenylene)bis(3-(3,4-dimethoxyphenyl)acrylamide)]", "values": [
      {"measurement": "melting point", "value": "> 250", "unit": "°C"},
      {"measurement": "TEAC (Trolox equivalent antioxidant capacity)", "setting": "[3]", "value": "1.33 ± 0.04"},
      {"measurement": "effect on triglycerides and glucose (TyG) index", "setting": "diet-induced MetS model [2]", "value": "decrease"},
      {"measurement": "effect on total cholesterol levels", "setting": "diet-induced MetS model [2]", "value": "not significant"},
      {"measurement": "effect on body weight", "setting": "diet-induced MetS model [2]", "value": "not significant"},
      {"measurement": "inhibition at 20 µM", "setting": "HMG-CoA reductase [4]", "value": 46, "unit": "%"}
    ]},
    {"compound": "O=C(O[C@@H]1Cc2c(O)cc(O)cc2O[C@@H]1c1ccc(O)c(O)c1)c1cc(O)c(O)c(O)c1", "note": "[epicatechin gallate]", "values": [
      {"measurement": "TEAC (Trolox equivalent antioxidant capacity)", "setting": "[5]", "value": "above 3.0"}
    ]},
    {"compound": "COc1cc(/C=C/C(=O)O)ccc1O", "note": "[ferulic acid]", "values": [
      {"measurement": "TEAC (Trolox equivalent antioxidant capacity)", "setting": "[5]", "value": 1.20}
    ]},
    {"compound": "O=c1c(O)c(-c2ccc(O)c(O)c2)oc2cc(O)cc(O)c12", "note": "[quercetin]", "values": [
      {"measurement": "TEAC (Trolox equivalent antioxidant capacity)", "setting": "[5]", "value": "above 3.0"}
    ]},
    {"compound": "C/C=C/c1cc(OC)c(OC)cc1OC", "note": "[α-asarone]", "values": [
      {"measurement": "IC50", "setting": "HMG-CoA reductase [6]", "value": 5.86, "unit": "µM"}
    ]}
  ]
}
